Reference: BindingDB's records for doi:10.7270/Q22F7KMG (Eli Lilly, 1995)

Columns and labels:
[1] = molecular target: T1, Gag-Pol polyprotein [489-587] (Human immunodeficiency virus 1, UniProt P04585)
T1 construct: 489-587

[2] = molecular target: T2, Dimer of Gag-Pol polyprotein [489-587] (Human immunodeficiency virus 1, UniProt P12497); assay: Protease Inhibition Assay; conditions: pH 5.5; 22 °C
T2 construct: 489-587
From the text: In the presence of HIV-l protease, the substrate is rapidly cleaved into two parts. The biotinylated amino terminal fragment binds to the avidin Pandex beads while the FITC-containing carboxy1 terminal fragment is removed through the membrane.

CC(C)(C)NC(=O)[C@@H]1C[C@@H]2SCC[C@@H]2CN1C[C@@H](O)[C@H](Cc1ccccc1)NC(=O)[C@@H](CS(=O)(=O)c1ccc2ccccc2c1)NS(C)(=O)=O [(3aR,6S,7aS)-N-tert-butyl-5-[(2R,3S)-2-hydroxy-3-[(2S)-2-methanesulfonamido-3-(naphthalene-2-sulfonyl)propanamido]-4-phenylbutyl]-octahydrothieno[3,2-c]pyridine-6-carboxamide] was tested, and the IC50 [1] was < 0.2 nM and the IC50 [2] was < 0.2 nM.

For CC(C)(C)NC(=O)[C@@H]1C[C@@H]2SCC[C@@H]2CN1C[C@@H](O)[C@H](Cc1ccccc1)NC(=O)[C@@H](CS(=O)(=O)c1ccc2ccccc2c1)NC(=O)C(F)(F)F [(3aR,6S,7aS)-N-tert-butyl-5-[(2R,3S)-2-hydroxy-3-[(2S)-3-(naphthalene-2-sulfonyl)-2-(2,2,2-trifluoroacetamido)propanamido]-4-phenylbutyl]-octahydrothieno[3,2-c]pyridine-6-carboxamide], the IC50 [1] was < 0.2 nM and the IC50 [2] was < 0.2 nM.

CC(C)(C)NC(=O)[C@@H]1C[C@@H]2SCC[C@@H]2CN1C[C@@H](O)[C@H](Cc1ccccc1)NC(=O)[C@@H](CS(=O)(=O)c1ccc(F)cc1)NC(=O)C(F)(F)F [(3aR,6S,7aS)-N-tert-butyl-5-[(2R,3S)-3-[(2S)-3-[(4-fluorobenzene)sulfonyl]-2-(2,2,2-trifluoroacetamido)propanamido]-2-hydroxy-4-phenylbutyl]-octahydrothieno[3,2-c]pyridine-6-carboxamide] was tested, and the IC50 [1] was < 0.2 nM and the IC50 [2] was < 0.2 nM.
